Several values for one entry are separate records, joined by “and”; a condition that tells them apart may be missing. Equal entries are not always repeated.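 Exposure lasted 48 hours, with cells grown in 96-well plates and compounds tested at five concentrations. GI50 is the concentration that inhibits growth by half. TGI denotes the concentration required for complete inhibition of growth.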 *1 amine or outer side, *2 acyl side, *3 side chain or, on linkers, in order; H or OH if unused. Where a SMILES comes first, the peptide text is derived from it. [ ]: non-standard residue; d: D form. X56 = CC[C@H](C)[C@H](OC(=O)[C@@H](C)[C@@H](CC)N[*:1])C(=O)[*:2]; X32 = C[C@H](N[*:1])C(=O)C(C)(C)C(=O)[*:2]; NMeY = CN[C@@H](Cc1ccc(O)cc1)C(=O)O; NMeL = CN[C@@H](CC(C)C)C(=O)O; NMeV = CN[C@H](C(=O)O)C(C)C
Experiments:
Experiment in all cases: NCI-60 cell line screen, 48 h
HOP-62 NSCLC = test system: HOP-62 NSCLC
SF-539 CNS = test system: SF-539 CNS
NCI-H460 lung = test system: NCI-H460 lung
786-0 renal = test system: 786-0 renal
OVCAR-4 ovarian = test system: OVCAR-4 ovarian
LOX IMVI melanoma = test system: LOX IMVI melanoma
RPMI-8226 leukemia = test system: RPMI-8226 leukemia
MDA-MB-231 breast = test system: MDA-MB-231 breast
SR leukemia = test system: SR leukemia
KM12 colon = test system: KM12 colon

Row | Compound | TGI (HOP-62 NSCLC) | TGI (SF-539 CNS) | TGI (NCI-H460 lung) | TGI (786-0 renal) | TGI (OVCAR-4 ovarian) | TGI (LOX IMVI melanoma) | TGI (RPMI-8226 leukemia) | TGI (MDA-MB-231 breast) | TGI (SR leukemia) | TGI (KM12 colon) | GI50 (KM12 colon) | GI50 (HOP-62 NSCLC) | GI50 (SF-539 CNS) | GI50 (NCI-H460 lung) | GI50 (786-0 renal) | GI50 (OVCAR-4 ovarian) | GI50 (LOX IMVI melanoma) | GI50 (RPMI-8226 leukemia) | GI50 (MDA-MB-231 breast) | GI50 (SR leukemia)
1 | Cc1cc(=O)oc2cc(OS(C)(=O)=O)ccc12 | > 100 µM | > 100 µM | > 100 µM | > 100 µM | > 100 µM | > 100 µM | > 100 µM | > 100 µM | > 100 µM |  |  |  |  |  |  |  |  |  |  | 
2 | NNC(=O)/C(NC(=O)c1ccccc1)=C(\N)c1ccc(Cl)cc1 | > 100 µM | > 100 µM | > 100 µM | > 100 µM | > 100 µM | > 100 µM | > 100 µM |  | > 100 µM | > 100 µM |  |  |  |  |  |  |  |  |  | 
3 | COc1cc2c(cn1)[nH]c1ccccc12 | > 100 µM | > 100 µM | > 100 µM | > 100 µM | > 100 µM | > 100 µM | > 100 µM |  | > 100 µM | > 100 µM |  |  |  |  |  |  |  |  |  | 
4 | O=C(COc1cccc(/C=C2\CSc3ccccc3C2=O)c1)c1ccc(Cl)cc1 | 6.12 µM | 8.22 µM | 8.38 µM | 2.89 µM | > 42.1 µM | 2.73 µM | > 100 µM | 14.8 µM |  | 2.75 µM | 1.29 µM | 2.15 µM | 3.05 µM | 2.88 µM | 1.4 µM | 3.09 µM | 1.39 µM | > 100 µM | 4.48 µM | 
5 | CC(C)c1ccc(NC(=S)NC(=O)c2ccccc2)cc1 | > 100 µM | > 100 µM | 40.2 µM | 46.4 µM | 55.2 µM | 31.2 µM | > 100 µM | 57 µM |  | 46.5 µM |  |  |  |  |  |  |  |  |  | 
6 | COc1cc(Nc2nc3ccc(C(F)(F)F)cc3nc2-c2ccccc2)cc(OC)c1OC | > 100 µM | > 100 µM | 32.3 µM | > 100 µM | > 100 µM | 15.5 µM |  |  | > 100 µM | > 100 µM |  |  |  |  |  |  |  |  |  | 
7 | CC1(O)CCC2(C#N)CCC1C2O (stereo unspecified) | > 100 µM | > 100 µM | > 100 µM | > 100 µM | > 100 µM | 41.9 µM | 54.6 µM |  | 45.4 µM | > 100 µM |  |  |  |  |  |  |  |  |  | 
8 | O=C1CS/C(=N\S(=O)(=O)c2ccc(N3N=C4c5ccccc5CC4C3c3ccc(Cl)cc3)cc2)N1c1ccccc1 (stereo unspecified) | > 100 µM | > 100 µM | 48.9 µM | > 100 µM |  | 49.1 µM | 88.7 µM | > 100 µM | 28.1 µM | 58.6 µM | 22 µM | 56.8 µM | 60.2 µM | 19.7 µM | 46.6 µM |  | 23.4 µM | 26.4 µM | 86 µM | 11.4 µM
9 | CC[C@H](C)[C@@H]1OC(=O)[C@@H](C)[C@@H](CC)NC(=O)[C@H](C)NC(=O)C(C)(C)C(=O)[C@H](C)NC(=O)[C@H](Cc2ccc(OC)cc2)N(C)C(=O)[C@H](C(C)C)N(C)C(=O)CNC(=O)[C@H](CC(C)C)N(C)C(=O)CNC1=O (cyclo(A[X56]G[NMeL]G[NMeV][NMeY](Me)[X32])) | 0.175 µM | 0.0508 µM and 0.126 µM |  | 0.48 µM and 0.233 µM |  |  | 3.38 µM | 0.792 µM | 1.06 µM and 0.6 µM | 91.2 µM | 0.679 µM |  | 0.0239 µM |  | 0.0675 µM |  | 0.0392 µM | 0.0263 µM |  | 0.063 µM
10 | COc1cc(/C=C(\OC(C)=O)c2ccc3c(c2)OCO3)cc(OC)c1OC | 47.7 µM | 38.8 µM | > 100 µM | > 100 µM | 51.8 µM | 31.3 µM | 76.6 µM |  | > 100 µM | 48.7 µM |  |  |  |  |  |  |  |  |  | 

Source: PubChem BioAssay (NCI)
